Reference: US20110190269A1, “GAMMA SECRETASE MODULATORS” (priority 2010, published 2011)
Counter-ions that a name gives are not always drawn.

Tested on: γ-secretase
Assay: Cellular γ-secretase assay (inhibition of Aβ42 secretion)
Assay type: cell-based
Conditions: human neuroglioma H4 cells overexpressing human APP, 22 hrs incubation
Method: Human neuroglioma H4 cells overexpressing human APP were plated at 30,000 cells/well/[…] in 96-well plates in IMDM media containing 10% FCS, […] Hygromycin B and incubated for 2 h at 37° C., 5% CO2 prior to adding test compounds.
Compounds for testing were dissolved in 100% Me2SO yielding in a 10 mM stock solution. Typically […] of these solutions were further diluted in 1000 μl of IMDM media (w/o FCS). Subsequent 1:1 dilutions gave a ten point dose response curve. 100 μl of each dilution was added to the cells in 96-well plates. Appropriate controls using vehicle only and reference compound were applied to this assay. The final concentration of Me2S0 was 0.4%.
After incubation for 22 hrs at 37° C., 5% CO2, 50 μl supernatant was transferred into round-bottom 96-well polypropylene plates for detection of Aβ42. 50 μl assay buffer (50 mM Tris/Cl, pH 7.4, 60 mM NaCl, 0.5% BSA, 1% TWEEN 20) was added to the wells followed by the addition of 100 μl of detection antibody (ruthenylated BAP15 0.0625 μg/ml in assay buffer). 50 μl of a premix of capture antibody (biotinylated 6E10 antibody, 1 μg/ml) and Steptavidin-coated magnetic beads (Dynal M-280, 0.125 mg/ml) were preincubated for 1 hr at room temperature before adding the assay plates. Assay plates were incubated on a shaker for 3 hrs at room temperature and finally read in the Bioveris M8 Analyser according to the manufacturer's instructions (Bioveris).
IC50 values for inhibition of Aβ42 secretion were calculated by nonlinear regression fit analysis using XLfit 4.0 software (IDBS).

COc1cc(Nc2nc3c(-c4ccc(F)cc4Cl)cc(C)cn3n2)ccc1-n1cnc(C)c1 [Example 65, [8-(2-Chloro-4-fluoro-phenyl)-6-methyl-[1,2,4]triazolo[1,5-a]pyridin-2-yl]-[3-methoxy-4-(4-methyl-imidazol-1-yl)-phenyl]-amine]
EC50: 24 nM

COc1cc(Nc2nc3c(-c4ccc(F)cc4C)cc(C)cn3n2)ccc1-n1cnc(C)c1 [Example 66, [8-(4-Fluoro-2-methyl-phenyl)-6-methyl-[1,2,4]triazolo[1,5-a]pyridin-2-yl]-[3-methoxy-4-(4-methyl-imidazol-1-yl)-phenyl]-amine]
EC50: 238 nM

COc1cc(Nc2nc3ncc(C#N)c(-c4ccccc4C)n3n2)ccc1-n1cnc(C)c1 [Example 67, 2-(3-Methoxy-4-(4-methyl-1H-imidazol-1-yl)phenylamino)-7-o-tolyl-[1,2,4]triazolo[1,5-a]pyrimidine-6-carbonitrile]
EC50: 450 nM

COc1cc(Nc2nc3nccc(-c4ccncc4)n3n2)ccc1-n1cnc(C)c1 [Example 68, N-(3-Methoxy-4-(4-methyl-1H-imidazol-1-yl)phenyl)-7-(pyridin-4-yl)-[1,2,4]triazolo[1,5-a]pyrimidin-2-amine]
EC50: 1170 nM

COc1cc(Nc2nc3ncc(C#N)c(-c4ccccc4F)n3n2)ccc1-n1cnc(C)c1 [Example 69, 7-(2-Fluorophenyl)-2-(3-methoxy-4-(4-methyl-1H-imidazol-1-yl)phenylamino)-[1,2,4]triazolo[1,5-a]pyrimidine-6-carbonitrile]
EC50: 485 nM

COc1ccccc1-c1c(C#N)cnc2nc(Nc3ccc(-n4cnc(C)c4)c(OC)c3)nn12 [Example 70, 2-(3-Methoxy-4-(4-methyl-1H-imidazol-1-yl)phenylamino)-7-(2-methoxyphenyl)-[1,2,4]triazolo[1,5-a]pyrimidine-6-carbonitrile]
EC50: 673 nM

COc1cc(Nc2nc3nccc(-c4ccc(F)cc4)n3n2)ccc1-n1cnc(C)c1 [Example 71, [7-(4-Fluoro-phenyl)-[1,2,4]triazolo[1,5-a]pyrimidin-2-yl]-[3-methoxy-4-(4-methyl-imidazol-1-yl)-phenyl]-amine]
EC50: 270 nM

COc1cc(Nc2nc3c(C)cnc(OCC(F)(F)F)n3n2)ccc1-n1cnc(C)c1 [Example 72, [3-Methoxy-4-(4-methyl-imidazol-1-yl)-phenyl]-[8-methyl-5-(2,2,2-trifluoro-ethoxy)-[1,2,4]triazolo[1,5-c]pyrimidin-2-yl]-amine]
EC50: 355 nM

COc1cc(Nc2nc3nccc(-c4ccc(F)c(Cl)c4)n3n2)ccc1-n1cnc(C)c1 [Example 73, 7-(3-Chloro-4-fluorophenyl)-N-(3-methoxy-4-(4-methyl-1H-imidazol-1-yl)phenyl)-[1,2,4]triazolo[1,5-a]pyrimidin-2-amine hydrochloride]
EC50: 359 nM

COc1cc(Nc2nc3c(-c4ccc(F)cc4F)cc(C)cn3n2)ccc1-n1cnc(C)c1 [Example 74, 8-(2,4-Difluorophenyl)-N-(3-methoxy-4-(4-methyl-1H-imidazol-1-yl)phenyl)-6-methyl-[1,2,4]triazolo[1,5-a]pyridin-2-amine]
EC50: 35 nM

COc1cc(Nc2nc3c(-c4ccc(F)c(C(F)(F)F)c4)cc(C)cn3n2)ccc1-n1cnc(C)c1 [Example 75, 8-(4-Fluoro-3-(trifluoromethyl)phenyl)-N-(3-methoxy-4-(4-methyl-1H-imidazol-1-yl)phenyl)-6-methyl-[1,2,4]triazolo[1,5-a]pyridin-2-amine]
EC50: 19 nM

COc1cc(Nc2nc3c(-c4ccc(F)c(C)c4)cc(C)cn3n2)ccc1-n1cnc(C)c1 [Example 76, 8-(4-Fluoro-3-methylphenyl)-N-(3-methoxy-4-(4-methyl-1H-imidazol-1-yl)phenyl)-6-methyl-[1,2,4]triazolo[1,5-a]pyridin-2-amine]
EC50: 19 nM

COc1cc(Nc2nc3c(-c4ccc(F)c(C#N)c4)cc(C)cn3n2)ccc1-n1cnc(C)c1 [Example 78, 2-Fluoro-5-(2-(3-methoxy-4-(4-methyl-1H-imidazol-1-yl)phenylamino)-6-methyl-[1,2,4]triazolo[1,5-a]pyridin-8-yl)benzonitrile]
EC50: 27 nM

COc1cc(Nc2nc3nc(C(F)(F)F)cc(-c4ccc(F)c(Cl)c4)n3n2)ccc1-n1cnc(C)c1 [Example 79, 7-(3-Chloro-4-fluorophenyl)-N-(3-methoxy-4-(4-methyl-1H-imidazol-1-yl)phenyl)-5-(trifluoromethyl)-[1,2,4]triazolo[1,5-a]pyrimidin-2-amine acetate]
EC50: 73 nM

COc1cc(Nc2nc3c(-c4ccc(F)c(F)c4)cc(C(F)(F)F)cn3n2)ccc1-n1cnc(C)c1 [Example 80, 8-(3,4-Difluorophenyl)-N-(3-methoxy-4-(4-methyl-1H-imidazol-1-yl)phenyl)-6-(trifluoromethyl)-[1,2,4]triazolo[1,5-a]pyridin-2-amine]
EC50: 121 nM

COc1cc(Nc2nc3c(-c4ccc(F)c(F)c4)cc(Cl)cn3n2)ccc1-n1cnc(C)c1 [Example 81, 6-Chloro-8-(3,4-difluorophenyl)-N-(3-methoxy-4-(4-methyl-1H-imidazol-1-yl)phenyl)-[1,2,4]triazolo[1,5-a]pyridin-2-amine]
EC50: 22 nM

COc1cc(Nc2nc3c(-c4ccc(N5CCOCC5)cc4)cc(C)cn3n2)ccc1-n1cnc(C)c1 [Example 82, N-(3-Methoxy-4-(4-methyl-1H-imidazol-1-yl)phenyl)-6-methyl-8-(4-morpholinophenyl)-[1,2,4]triazolo[1,5-a]pyridin-2-amine]
EC50: 242 nM

COc1cc(Nc2nc3c(-c4ccc(CC#N)cc4)cc(C)cn3n2)ccc1-n1cnc(C)c1 [Example 83, 2-(4-(2-(3-Methoxy-4-(4-methyl-1H-imidazol-1-yl)phenylamino)-6-methyl-[1,2,4]triazolo[1,5-a]pyridin-8-yl)phenyl)acetonitrile]
EC50: 408 nM

COc1ccc(-c2cc(C)cn3nc(Nc4ccc(-n5cnc(C)c5)c(OC)c4)nc23)c(OC)c1 [Example 84, 8-(2,4-Dimethoxyphenyl)-N-(3-methoxy-4-(4-methyl-1H-imidazol-1-yl)phenyl)-6-methyl-[1,2,4]triazolo[1,5-a]pyridin-2-amine]
EC50: 321 nM

COc1cc(Nc2nc3c(-c4ccc(F)c(F)c4)cc(F)cn3n2)ccc1-n1cnc(C)c1 [Example 85, 8-(3,4-Difluorophenyl)-6-fluoro-N-(3-methoxy-4-(4-methyl-1H-imidazol-1-yl)phenyl)-[1,2,4]triazolo[1,5-a]pyridin-2-amine]
EC50: 32 nM

COc1cc(Nc2nc3c(-c4ccc(F)cc4Cl)cc(F)cn3n2)ccc1-n1cnc(C)c1 [Example 86, 8-(2-Chloro-4-fluorophenyl)-6-fluoro-N-(3-methoxy-4-(4-methyl-1H-imidazol-1-yl)phenyl)-[1,2,4]triazolo[1,5-a]pyridin-2-amine]
EC50: 143 nM

COc1cc(Nc2nc3c(-c4ccc5nc(C)oc5c4)cc(C)cn3n2)ccc1-n1cnc(C)c1 [Example 87, N-(3-Methoxy-4-(4-methyl-1H-imidazol-1-yl)phenyl)-6-methyl-8-(2-methylbenzo[d]oxazol-6-yl)-[1,2,4]triazolo[1,5-a]pyridin-2-amine]
EC50: 44 nM

COc1cc(Nc2nc3c(-c4ccc5ncn(C)c5c4)cc(C)cn3n2)ccc1-n1cnc(C)c1 [Example 88, N-(3-Methoxy-4-(4-methyl-1H-imidazol-1-yl)phenyl)-6-methyl-8-(1-methyl-1H-benzo[d]imidazol-6-yl)-[1,2,4]triazolo[1,5-a]pyridin-2-amine]
EC50: 188 nM

COc1cc(Nc2nc3c(-c4ccc5c(c4)OCCN5C)cc(C)cn3n2)ccc1-n1cnc(C)c1 [Example 89, N-(3-Methoxy-4-(4-methyl-1H-imidazol-1-yl)phenyl)-6-methyl-8-(4-methyl-3,4-dihydro-2H-benzo[b][1,4]oxazin-7-yl)-[1,2,4]triazolo[1,5-a]pyridin-2-amine]
EC50: 290 nM

COc1cc(Nc2nc3c(-c4ccc(C(C)(C)O)c(F)c4)cc(C)cn3n2)ccc1-n1cnc(C)c1 [Example 90, 2-(2-Fluoro-4-(2-(3-methoxy-4-(4-methyl-1H-imidazol-1-yl)phenylamino)-6-methyl-[1,2,4]triazolo[1,5-a]pyridin-8-yl)phenyl)propan-2-ol]
EC50: 475 nM

COc1cc(Nc2nc3c(-c4ccc(Cl)cc4C=O)cc(C)cn3n2)ccc1-n1cnc(C)c1 [Example 91, 5-Chloro-2-(2-(3-methoxy-4-(4-methyl-1H-imidazol-1-yl)phenylamino)-6-methyl-[1,2,4]triazolo[1,5-a]pyridin-8-yl)benzaldehyde]
EC50: 310 nM

COc1cc(Nc2nc3c(-c4ccc(Cl)cc4CO)cc(C)cn3n2)ccc1-n1cnc(C)c1 [Example 92, (5-Chloro-2-(2-(3-methoxy-4-(4-methyl-1H-imidazol-1-yl)phenylamino)-6-methyl-[1,2,4]triazolo[1,5-a]pyridin-8-yl)phenyl)methanol]
EC50: 375 nM

COc1cc(Nc2nc3nc(C)cc(-c4ccc(F)c(Cl)c4)n3n2)ccc1-n1cnc(C)c1 [Example 93, 7-(3-Chloro-4-fluorophenyl)-N-(3-methoxy-4-(4-methyl-1H-imidazol-1-yl)phenyl)-5-methyl-[1,2,4]triazolo[1,5-a]pyrimidin-2-amine]
EC50: 68 nM
